In US20070111258A1, “Compositions and methods for modulating the acute phase response” (priority 2005, published 2007):

Tests used:
CREBH = test: Endogenous CREBH cleavage in mouse liver (Western blot); type: in vivo; settings: wild-type mice; 24 hours after i.p. injection
Protocol: (F-G) Expression of endogenous CREBH protein in the livers of wild-type (F) and CREBH knockdown (G) mice challenged with IL6 plus IL1β, LPS or Tm. Wild-type or CREBH knockdown mice of 3-month old were intraperitoneally injected with IL6 (25 ng/gram body weight) plus IL1β (25 ng/gram body weight), LPS (3 μg/gram body weight) or Tm (2 μg/gram body weight). Mice were injected with the same volume of NaCL solution as controls. Liver protein extracts were prepared at 24 hours after injection. Western blot analysis was performed by using a polyclonal anti-mouse CREBH antibody. The blots were reprobed with anti-α-actin antibody for loading controls.

CREBH mRNA = CREBH mRNA induction in H2.35 cells (Northern blot, quantitative real-time RT-PCR); type: cell-based; settings: murine H2.35 hepatoma cells; IL6 40 ng/ml, TNFα 20 ng/ml, IL1β 40 ng/ml, DTT 5 mM, Tg 0.5 μM, Tm 5 μg/ml, BFA 0.5 μg/ml; 4, 8, 12 hours
Protocol: FIG. 1 depicts the induction of expression of CREBH during fetal liver development and by proinflammatory cytokines. (A) Structural comparison of CREBH and ATF6. The domains are indicated by residue numbers of amino acids. (B) Northern blot analysis of CREBH mRNA levels in various tissues from mice. Tissue samples were collected from 3-month-old wild-type C57BL/6J mice. Levels of β-actin mRNA were determined for control of sample loading. (C) Expression profile of CREBH mRNA in fetal livers during embryogenesis. (D) Induction of CREBH mRNA in murine hepatoma cell line H2.35 under IL6 (40 ng/ml) stimulation for various time points. For panels A-D, experiments were performed at least 3 times and representative data are shown.
FIG. 2 depicts the analysis of gene expression in H2.35 cells. H2.35 cells were treated with 20 ng/ml TNFα, 40 ng/ml IL1β, 20 μg.ml LPS, 5 mM DTT, 0.5 μM Tg, 5 μg/ml Tm or 0.5 μg/ml BFA for 4, 8 and 12 hours, respectively. Levels of CREBH mRNA (A) and spliced XBP1 mRNA (B) in H2.35 were determined by quantitative real-time RT-PCR. Fold changes of mRNA induction were determined after normalization of the mRNA levels to internal control 18S ribosomal RNA levels. […] However, expression from the SAP or CRP promoter-reporter plasmids is sufficiently measurable in H2.35 cells so that it is possible to investigate transcriptional activation effects of CREBH on the CRP and SAP promoters by reporter assays in H2.35 cells. These reporter experiments are not possible in non-hepatocyte cell lines. However, for non-hepatocyte cell lines, such as wild-type and mutant CHO cells, CREBH cleavage and activation could be measured using the UPRE reporter assay. (C) Summary of stimuli that induce CREBH mRNA, NF-κB activation and the UPR in H2.35 and HepG2 cells. (D) Expression of BiP and GRP94 in H2.35 cells over-expressing CREBH or ATF6. H2.35 cells in a 35 mm collagen-coated plate were transfected with 1.5 μg empty DNA vector, vector expressing the nuclear form of CREBH (CREBH-N) or vector expressing nuclear form of ATF6 (ATF6 p50), respectively. Expression levels of BiP and GRP 94 were determined by Western blot analysis by using a murine and —BiP monoclonal antibody and a murine anti-GRP94 monoclonal antibody, respectively. The membranes were re-blotted with an anti-α-actin antibody for control of sample loading.
Northern blot analysis was performed according to standard procedures (Sambrook et al., 1989). ^32P-labeled probes were prepared using a random prime labeling system (Amersham Pharmacia, Piscataway, N.J., USA). A 210 bp mouse CREBH cDNA fragment, a 250 bp mouse CRP cDNA fragment and a 260 bp mouse SAP cDNA fragment were amplified from murine total RNA by reverse transcription-PCR system (Roche Applied Science), respectively, and were used as probes for Northern blot analyses. Total RNA (15 μg) per sample purified from cultured cells or murine tissues was used for Northern blot analysis. Quantitative real-time RT-PCR was performed as previously described (Back et al., 2005). Briefly, total cellular RNA prepared was reverse-transcribed to cDNA using a random primer (Applied Biosystems). The reaction mixture, containing SYBR Green PCR Master Mix (Applied Biosystems), was run in a 7900HT Fast Real-Time PCR System (Applied Biosystems). Real-time PCR primer sequences for quantification of murine XBP1 mRNA splicing are: the forward primer 5′-[…]-3′, and the reverse primer 5′-[…]-3′. Other primer sequences were designed by Primer Express (Applied Biosystems).

[1] = tested on: BiP, CHOP, EDEM, spliced XBP1, SAP and CRP mRNAs; test: UPR and APR mRNA induction in mouse liver after injection (quantitative real-time RT-PCR); type: in vivo; settings: intraperitoneal injection of Tm 2 mg/kg; 24 hours
Protocol: Levels of spliced XBP1 mRNA were determined by quantitative real-time RT-PCR (lower panel). […] (B) Induction of CRP, SAP, BiP and spliced XBP1 mRNAs in mice injected with Tm. C57BU6J mice at 3-months of age were injected intraperitoneally with Tm (2 mg/kg body weight) in 150 mM dextrose solution. Mice were injected with the same volume of dextrose solution as a control. Liver tissues were collected from mice at 24 hours after injection for RNA isolation. (C-E) Induction of the BiP, CHOP, EDEM, spliced XBP1, SAP and CRP mRNAs in mice challenged with IL6, IL1β, LPS or Tm. Wild-type C57B1/6J mice at 3-months of age were intraperitoneally injected with recombinant murine IL6 (25 ng/gram body weight), recombinant murine IL1β (25 ng/gram body weight), LPS (3 μg/gram body weight) or Tm (2 μg/gram body weight). Mice were injected with the same volume of NaCL (for panels C and D) or dextrose (for panels E) solution as controls. At 24 hours after injection, liver samples were collected for isolating total RNA. Quantitative real-time RT-PCR was used to determine the mRNA levels. Fold changes of mRNA induction were determined after normalization of the mRNA levels to internal control 18S ribosomal RNA levels. Each bar denotes the mean±S.D., n=5 mice per injection.
Quantitative real-time RT-PCR was performed as previously described (Back et al., 2005). Briefly, total cellular RNA prepared was reverse-transcribed to cDNA using a random primer (Applied Biosystems). The reaction mixture, containing SYBR Green PCR Master Mix (Applied Biosystems), was run in a 7900HT Fast Real-Time PCR System (Applied Biosystems). Real-time PCR primer sequences for quantification of murine XBP1 mRNA splicing are: the forward primer 5′-[sequence]-3′, and the reverse primer 5′-[sequence]-3′. Other primer sequences were designed by Primer Express (Applied Biosystems).

CRP = test: Serum CRP in CREBH knockdown and control RNAi mice (ELISA); type: in vivo, mouse; settings: 24 hours after injection
Protocol: (§1) (A) Identification of CREBH knockdown mice by Northern blot analysis. Transgenic mice with empty vector lentivirus expressing GFP were used as controls. Total RNAs (15 μg/lane) were isolated from the livers of the CREBH RNAi or the control mice, and subjected to Northern blot analysis. A 260 bp GFP cDNA fragment and a 210 bp mouse CREBH cDNA fragment were used as probes for detecting levels of GFP mRNA and CREBH mRNA, respectively. Levels of ββ-actin mRNA were determined for control of sample loading. (B) Morphology of CREBH knockdown embryos. The embryos were collected at gestation stage E14.5. The paraffin-embedded embryo sections were stained with hematoxylin and eosin. Magnification: 20 X. (C) Northern blot analysis of levels of CREBH, CRP and SAP mRNA in the livers of the CREBH knockdown or the control mice. Levels of β-actin mRNA were determined for sample loading controls. (D-E) Serum levels of SAP and CRP in the CREBH knockdown and the siRNA control mice in response to IL6 plus IL1β LPS or Tm. CREBH knockdown and RNAi control mice at 3-months of age were challenged with recombinant mouse IL6 (25 ng/gram body weight) plus recombinant mouse IL1β (25 ng/gram body weight), LPS (3 μg/gram body weight) or Tm (2 mg/kg body weight). Serum levels of SAP and CRP in the mice were determined before injection and at 24 hours after IL6 plus IL1β, LPS or Tm injection. […]

SAP = test: Serum SAP in CREBH knockdown and control RNAi mice (ELISA); type: in vivo, mouse; settings: Tm 2 μg/gram body weight i.p., 24 hours
Protocol: as §1

CRP and SAP mRNA = CRP and SAP mRNA in mouse primary hepatocytes (Northern blot); type: cell-based; settings: Tm 5 μg/ml 2, 4, 6, 8 hours
Protocol: Primary hepatocytes were isolated from fetal livers of C57BL/6J mice at embryonic stage E18, and were then treated with Tm (5 μg/ml) for 2, 4, 6, and 8 hours. Total RNA was isolated and subjected to Northern blot analysis to determine levels of CRP, SAP and BiP mRNAs (upper panel). Levels of spliced XBP1 mRNA were determined by quantitative real-time RT-PCR (lower panel). For panels A-B, experiments were performed at least 3 times and representative data are shown. […] Quantitative real-time RT-PCR was used to determine the mRNA levels.
Primary hepatocytes were isolated from fetal livers of C57BL/6J mice at embryonic stage E18 as previously described (Mackey and Darlington, 2004).

tunicamycin [Tm]
cleaved form of CREBH in the livers (CREBH): cleaved form of CREBH was increased | induction of CREBH mRNA (CREBH mRNA): minor effect | expression of APR genes and UPR genes in the livers of mice [1]: induced expression of both the APR genes and the UPR genes | increase of serum levels of CRP (CRP; control RNAi mice): approximately 2 fold | increase of serum levels of CRP (CRP; treated CREBH knockdown mice): no such increase | increase of serum SAP (SAP; CREBH knockdown mice): approximately 2 fold | increase of serum levels of SAP (SAP; control mice): approximately 12 fold | expression of the CRP and SAP mRNA (CRP and SAP mRNA): increased expression of the CRP and SAP mRNA in a time-dependent manner
